Assays:
Staphylococcus aureus = details: reference values the eluted concentrations are compared with; cited from earlier work
[1] = drug elution from cured MAPLAPEG gel strips in phosphate buffered saline; format: physicochemical; details: eluted from MAPLAPEG polymers; 250 mg gel strip in 5 ml phosphate buffered saline; sampled 0.25 to 28 days; n=4
Method: Methacrylated poly(lactic acid-co-ethylene glycol) (MAPLAPEG) macromers were synthesized with microwave synthesis with a lactate degree of polymerization (DP) of 4 and PEG400 (DP 9.5). Chitosan nanoparticles (CNP) were synthesized using ionic gelation and ketorolac tromethamine was loaded into the CNPs. For polymerization, the MAPLAPEG macromers were mixed with 10 mg/mL Phenylbis(2,4,6-trimethylbenzoyl) phosphine oxide initiator at a ratio of 1 μL each 20 μL of macromer and exposed to UV radiation at 395 nm for two minutes to form a 250 mg gel strip with the dimensions of 5 mm×3 mm×20 mm. The test groups were formed as follows: (1) gel and antibiotic; (2) gel loaded with antibiotic and CNPs; (3) gel loaded with antibiotic and (4) gel and ketorolac loaded CNPs. Gels loaded with only ketorolac loaded CNPs were used as controls for ketorolac elution. […] Eluent concentrations were measured using UV visible spectrometry. Gentamicin sulfate samples were treated with O-phthalaldehyde and the fluorescence was measured after complexation.
FIGS. 1A-1C depict the release rates of vancomycin, gentamicin and ketorolac from the gels loaded only with antibiotics and those loaded also with particles and those loaded with particles containing ketorolac. […] The sample size for each group was four and standard deviation was calculated for each sample group.

In the case of `CN[C@H](CC(C)C)C(=O)N[C@H]1C(=O)N[C@@H](CC(N)=O)C(=O)N[C@H]2C(=O)N[C@H]3C(=O)N[C@H](C(=O)N[C@H](C(=O)O)c4cc(O)cc(O)c4-c4cc3ccc4O)[C@H](O)c3ccc(c(Cl)c3)Oc3cc2cc(c3O[C@@H]2O[C@H](CO)[C@@H](O)[C@H](O)[C@H]2O[C@H]2C[C@](C)(N)[C@H](O)[C@H](C)O2)Oc2ccc(cc2Cl)[C@H]1O` [Vancomycin, vancomycin], the “minimum inhibitory concentration (MIC)” value (Staphylococcus aureus) is listed as 0.5 to 2 µg/mL and the “time eluted concentration maintained above the MIC” value [1] is listed as 4 weeks.

For gentamicin, the “minimum inhibitory concentration (MIC)” value (Staphylococcus aureus) is given as 1.5 to 3 µg/mL and the “time eluted concentration maintained above the MIC” value [1] is given as 4 weeks.

From patent US20250302768A1, “NANOPARTICLE DOPED POLYETHYLENE GLYCOL BASED GELS AND MEDICAL DEVICES FOR DRUG DELIVERY” (priority 2022, published 2025)
